Experimental data taken from ChEMBL document CHEMBL1152560, “Substituted 2-arylbenzothiazoles as kinase inhibitors: hit-to-lead optimization” (Bioorg Med Chem, 2009).

Key:
[1] = target: Ephrin type-A receptor 4 (Homo sapiens) (UniProt P54764); test: Residual activity of EPHA4 at 1 uM by microplate scintillation counting
[2] = target: CDC42BPA protein (Homo sapiens) (UniProt B9EGA7); test: Residual activity of CDC42BPA at 0.1 uM by microplate scintillation counting
[3] = target: Receptor tyrosine-protein kinase erbB-2 (Homo sapiens, UniProt P04626); test: Residual activity of ERBB2 at 1 uM by microplate scintillation counting
Receptor tyrosine-protein kinase erbB-2, sequence (P04626 whole entry): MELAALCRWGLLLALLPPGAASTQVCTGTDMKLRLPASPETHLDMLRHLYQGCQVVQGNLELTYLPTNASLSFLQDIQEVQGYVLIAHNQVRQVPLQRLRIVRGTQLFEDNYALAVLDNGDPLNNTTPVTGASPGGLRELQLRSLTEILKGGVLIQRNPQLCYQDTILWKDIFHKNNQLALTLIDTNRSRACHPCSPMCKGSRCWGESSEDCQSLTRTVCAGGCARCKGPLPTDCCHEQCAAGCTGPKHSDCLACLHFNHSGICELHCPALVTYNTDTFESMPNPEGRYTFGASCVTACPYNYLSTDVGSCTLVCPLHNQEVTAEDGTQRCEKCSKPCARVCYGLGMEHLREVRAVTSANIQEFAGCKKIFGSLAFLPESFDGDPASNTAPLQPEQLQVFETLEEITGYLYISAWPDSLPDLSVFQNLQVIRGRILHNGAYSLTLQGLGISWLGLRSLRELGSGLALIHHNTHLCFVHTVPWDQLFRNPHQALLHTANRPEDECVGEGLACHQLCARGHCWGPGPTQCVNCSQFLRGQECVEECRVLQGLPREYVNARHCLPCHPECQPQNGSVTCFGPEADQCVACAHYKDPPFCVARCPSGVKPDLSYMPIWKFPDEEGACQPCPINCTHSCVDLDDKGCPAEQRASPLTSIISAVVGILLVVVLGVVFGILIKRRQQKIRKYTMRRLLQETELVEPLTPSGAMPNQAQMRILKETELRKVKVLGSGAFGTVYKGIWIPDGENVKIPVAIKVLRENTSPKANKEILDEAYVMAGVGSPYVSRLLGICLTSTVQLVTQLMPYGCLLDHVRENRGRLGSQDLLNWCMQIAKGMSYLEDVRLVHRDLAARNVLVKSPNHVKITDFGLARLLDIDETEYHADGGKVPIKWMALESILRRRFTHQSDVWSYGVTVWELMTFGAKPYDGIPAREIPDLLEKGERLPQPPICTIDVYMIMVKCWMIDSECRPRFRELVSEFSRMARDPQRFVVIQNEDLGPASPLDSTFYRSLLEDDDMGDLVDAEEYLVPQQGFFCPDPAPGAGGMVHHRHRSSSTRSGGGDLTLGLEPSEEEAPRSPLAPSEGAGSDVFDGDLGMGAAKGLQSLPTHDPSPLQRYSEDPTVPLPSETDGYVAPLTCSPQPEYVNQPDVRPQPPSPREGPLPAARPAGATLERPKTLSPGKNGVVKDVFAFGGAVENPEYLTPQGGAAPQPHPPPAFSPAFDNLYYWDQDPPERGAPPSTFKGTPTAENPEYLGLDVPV

[4] = system: Epidermal growth factor receptor (Homo sapiens), P00533 [T790M]; test: Residual activity of EGFR T790M mutant at 1 uM by microplate scintillation counting
[5] = target: T1, Serine/threonine-protein kinase Sgk2 (Homo sapiens) (UniProt Q9HBY8); test: Residual activity of SGK2 at 10 uM by microplate scintillation counting
T1 sequence (whole entry): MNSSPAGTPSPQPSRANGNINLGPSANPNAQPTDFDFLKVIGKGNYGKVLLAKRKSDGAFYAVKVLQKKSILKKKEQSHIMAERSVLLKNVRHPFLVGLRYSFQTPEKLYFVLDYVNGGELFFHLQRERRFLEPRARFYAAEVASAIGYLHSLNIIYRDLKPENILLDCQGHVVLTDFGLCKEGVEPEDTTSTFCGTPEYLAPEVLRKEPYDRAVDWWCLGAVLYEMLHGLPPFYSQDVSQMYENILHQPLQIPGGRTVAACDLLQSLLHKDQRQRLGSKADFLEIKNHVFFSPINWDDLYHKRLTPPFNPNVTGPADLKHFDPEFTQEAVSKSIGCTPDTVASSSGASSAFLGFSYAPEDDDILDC

[6] = target: Tyrosine-protein kinase CSK (Homo sapiens) (UniProt P41240); test: Residual activity of CSK at 1 uM by microplate scintillation counting
Tyrosine-protein kinase CSK (Homo sapiens), sequence (P41240 2-450 limits assumed): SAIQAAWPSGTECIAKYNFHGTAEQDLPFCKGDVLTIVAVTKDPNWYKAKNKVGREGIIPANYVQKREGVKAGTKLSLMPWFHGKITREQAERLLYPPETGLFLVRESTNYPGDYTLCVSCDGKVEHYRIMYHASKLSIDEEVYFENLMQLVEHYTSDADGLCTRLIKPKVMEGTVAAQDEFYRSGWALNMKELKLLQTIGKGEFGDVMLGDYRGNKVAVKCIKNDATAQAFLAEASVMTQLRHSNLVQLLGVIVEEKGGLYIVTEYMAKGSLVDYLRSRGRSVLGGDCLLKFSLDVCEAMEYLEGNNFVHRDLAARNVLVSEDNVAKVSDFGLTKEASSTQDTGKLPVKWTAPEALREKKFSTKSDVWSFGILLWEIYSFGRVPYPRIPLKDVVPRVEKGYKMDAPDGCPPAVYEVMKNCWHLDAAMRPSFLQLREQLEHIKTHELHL

[7] = target: Calcium/calmodulin-dependent protein kinase type II subunit delta (Homo sapiens) (UniProt Q13557); test: Residual activity of CAMK2D at 10 uM by microplate scintillation counting
Calcium/calmodulin-dependent protein kinase type II subunit delta (Homo sapiens), sequence (Q13557 whole entry): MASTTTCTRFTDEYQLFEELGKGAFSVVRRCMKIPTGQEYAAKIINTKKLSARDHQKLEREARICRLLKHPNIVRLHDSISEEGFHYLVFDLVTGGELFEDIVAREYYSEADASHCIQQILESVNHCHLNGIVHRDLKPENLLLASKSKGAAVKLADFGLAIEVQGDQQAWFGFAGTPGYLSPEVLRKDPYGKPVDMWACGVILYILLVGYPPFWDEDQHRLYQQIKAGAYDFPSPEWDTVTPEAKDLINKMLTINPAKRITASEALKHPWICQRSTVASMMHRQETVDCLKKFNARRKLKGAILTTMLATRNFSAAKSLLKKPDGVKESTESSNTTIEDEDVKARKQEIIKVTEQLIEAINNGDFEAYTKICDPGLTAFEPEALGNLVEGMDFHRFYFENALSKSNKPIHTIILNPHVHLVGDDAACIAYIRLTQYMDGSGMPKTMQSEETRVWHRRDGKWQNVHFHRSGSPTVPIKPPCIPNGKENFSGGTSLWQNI

[8] = target: Hepatocyte growth factor receptor (Homo sapiens) (UniProt P08581); test: Residual activity of MET at 1 uM by microplate scintillation counting
[9] = target: T2, Serine/threonine-protein kinase D3 (Homo sapiens) (UniProt O94806); test: Residual activity of PKCnu at 1 uM by microplate scintillation counting
T2 sequence (whole entry): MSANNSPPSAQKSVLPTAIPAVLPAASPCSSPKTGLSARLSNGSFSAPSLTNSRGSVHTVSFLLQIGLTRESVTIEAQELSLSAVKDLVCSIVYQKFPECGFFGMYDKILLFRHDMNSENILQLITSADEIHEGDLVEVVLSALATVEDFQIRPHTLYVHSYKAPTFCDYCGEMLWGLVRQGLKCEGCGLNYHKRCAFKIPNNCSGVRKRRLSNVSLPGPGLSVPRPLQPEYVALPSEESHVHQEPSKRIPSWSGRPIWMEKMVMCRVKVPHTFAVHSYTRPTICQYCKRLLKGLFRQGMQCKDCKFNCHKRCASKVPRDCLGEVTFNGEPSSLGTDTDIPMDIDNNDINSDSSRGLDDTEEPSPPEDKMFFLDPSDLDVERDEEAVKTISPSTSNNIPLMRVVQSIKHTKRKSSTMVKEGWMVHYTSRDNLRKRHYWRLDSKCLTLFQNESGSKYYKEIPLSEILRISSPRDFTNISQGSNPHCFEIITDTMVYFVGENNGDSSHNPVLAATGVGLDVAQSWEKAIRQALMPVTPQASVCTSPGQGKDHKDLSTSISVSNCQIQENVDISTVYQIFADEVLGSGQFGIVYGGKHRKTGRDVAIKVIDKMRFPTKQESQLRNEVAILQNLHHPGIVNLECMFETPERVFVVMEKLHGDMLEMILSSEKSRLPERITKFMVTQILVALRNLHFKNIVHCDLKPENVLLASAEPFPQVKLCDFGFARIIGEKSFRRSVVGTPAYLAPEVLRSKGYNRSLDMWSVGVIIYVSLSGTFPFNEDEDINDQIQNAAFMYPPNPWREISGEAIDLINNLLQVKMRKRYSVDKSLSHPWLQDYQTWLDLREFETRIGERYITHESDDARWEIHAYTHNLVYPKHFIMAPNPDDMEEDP

[10] = target: Serine/threonine-protein kinase 26 (Homo sapiens) (UniProt Q9P289); test: Residual activity of MST4 at 0.1 uM by microplate scintillation counting
Serine/threonine-protein kinase 26 (Homo sapiens), sequence (Q9P289 2-416 limits assumed): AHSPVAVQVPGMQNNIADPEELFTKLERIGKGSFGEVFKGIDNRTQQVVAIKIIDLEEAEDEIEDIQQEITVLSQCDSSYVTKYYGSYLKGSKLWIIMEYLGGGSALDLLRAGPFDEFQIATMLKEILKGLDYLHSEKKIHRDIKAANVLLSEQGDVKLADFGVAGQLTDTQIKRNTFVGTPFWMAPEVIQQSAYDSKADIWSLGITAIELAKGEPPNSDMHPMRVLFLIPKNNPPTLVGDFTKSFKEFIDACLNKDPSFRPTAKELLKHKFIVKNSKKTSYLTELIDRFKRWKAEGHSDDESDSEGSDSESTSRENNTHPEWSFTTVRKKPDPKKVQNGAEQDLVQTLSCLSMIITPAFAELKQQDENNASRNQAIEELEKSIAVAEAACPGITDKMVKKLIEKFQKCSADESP

[11] = target: 3-phosphoinositide-dependent protein kinase 1 (Homo sapiens) (UniProt O15530); test: Residual activity of PDK1 at 10 uM by microplate scintillation counting
[12] = target: PAS domain-containing serine/threonine-protein kinase (Homo sapiens) (UniProt Q96RG2); test: Residual activity of PASK at 10 uM by microplate scintillation counting
[13] = target: Mitogen-activated protein kinase 1 (Homo sapiens) (UniProt P28482); test: Residual activity of ERK2 at 10 uM by microplate scintillation counting
[14] = target: Leukocyte tyrosine kinase receptor (Homo sapiens) (UniProt P29376); test: Residual activity of LTK at 10 uM by microplate scintillation counting
[15] = target: Proto-oncogene tyrosine-protein kinase receptor Ret (Homo sapiens) (UniProt P07949); test: Residual activity of RET at 10 uM by microplate scintillation counting
[16] = target: Serine/threonine-protein kinase 24 (Homo sapiens) (UniProt Q9Y6E0); test: Residual activity of MST3 at 10 uM by microplate scintillation counting
Serine/threonine-protein kinase 24 (Homo sapiens), sequence (Q9Y6E0 whole entry, looked up): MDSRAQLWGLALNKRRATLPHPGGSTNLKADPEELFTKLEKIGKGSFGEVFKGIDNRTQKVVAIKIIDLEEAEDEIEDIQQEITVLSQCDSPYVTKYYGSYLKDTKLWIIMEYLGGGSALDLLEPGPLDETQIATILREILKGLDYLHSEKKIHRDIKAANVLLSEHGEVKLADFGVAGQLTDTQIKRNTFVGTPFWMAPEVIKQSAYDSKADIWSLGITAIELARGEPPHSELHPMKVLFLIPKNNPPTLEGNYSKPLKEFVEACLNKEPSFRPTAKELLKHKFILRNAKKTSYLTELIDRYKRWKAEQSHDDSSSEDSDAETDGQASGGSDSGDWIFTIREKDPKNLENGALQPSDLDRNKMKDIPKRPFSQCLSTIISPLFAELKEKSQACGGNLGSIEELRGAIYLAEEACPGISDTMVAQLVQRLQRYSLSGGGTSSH

[17] = target: T3, Protein kinase C zeta type (Homo sapiens) (UniProt Q05513); test: Residual activity of PKCzeta at 1 uM by microplate scintillation counting
T3 sequence (whole entry): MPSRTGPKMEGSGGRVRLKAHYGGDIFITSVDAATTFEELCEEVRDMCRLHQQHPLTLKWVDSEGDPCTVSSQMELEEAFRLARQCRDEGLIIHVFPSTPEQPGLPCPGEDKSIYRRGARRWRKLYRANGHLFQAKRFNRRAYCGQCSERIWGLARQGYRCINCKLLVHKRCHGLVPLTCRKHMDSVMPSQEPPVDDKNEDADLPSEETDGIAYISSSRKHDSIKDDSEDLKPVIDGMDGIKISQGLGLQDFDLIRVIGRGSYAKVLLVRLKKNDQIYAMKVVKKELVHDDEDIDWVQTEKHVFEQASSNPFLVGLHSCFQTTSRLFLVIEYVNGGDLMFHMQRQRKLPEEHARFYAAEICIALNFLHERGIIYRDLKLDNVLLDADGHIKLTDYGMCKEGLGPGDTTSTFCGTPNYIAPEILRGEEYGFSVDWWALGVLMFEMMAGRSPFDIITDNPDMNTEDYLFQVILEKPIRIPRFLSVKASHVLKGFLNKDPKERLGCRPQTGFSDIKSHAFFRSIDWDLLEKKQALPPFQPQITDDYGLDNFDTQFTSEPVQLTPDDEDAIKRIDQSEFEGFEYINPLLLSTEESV

[18] = target: Serine/threonine-protein kinase MRCK beta (Homo sapiens) (UniProt Q9Y5S2); test: Residual activity of CDC42BPB at 0.1 uM by microplate scintillation counting

CDC42BPA protein (Homo sapiens), sequence (B9EGA7 as listed by the source): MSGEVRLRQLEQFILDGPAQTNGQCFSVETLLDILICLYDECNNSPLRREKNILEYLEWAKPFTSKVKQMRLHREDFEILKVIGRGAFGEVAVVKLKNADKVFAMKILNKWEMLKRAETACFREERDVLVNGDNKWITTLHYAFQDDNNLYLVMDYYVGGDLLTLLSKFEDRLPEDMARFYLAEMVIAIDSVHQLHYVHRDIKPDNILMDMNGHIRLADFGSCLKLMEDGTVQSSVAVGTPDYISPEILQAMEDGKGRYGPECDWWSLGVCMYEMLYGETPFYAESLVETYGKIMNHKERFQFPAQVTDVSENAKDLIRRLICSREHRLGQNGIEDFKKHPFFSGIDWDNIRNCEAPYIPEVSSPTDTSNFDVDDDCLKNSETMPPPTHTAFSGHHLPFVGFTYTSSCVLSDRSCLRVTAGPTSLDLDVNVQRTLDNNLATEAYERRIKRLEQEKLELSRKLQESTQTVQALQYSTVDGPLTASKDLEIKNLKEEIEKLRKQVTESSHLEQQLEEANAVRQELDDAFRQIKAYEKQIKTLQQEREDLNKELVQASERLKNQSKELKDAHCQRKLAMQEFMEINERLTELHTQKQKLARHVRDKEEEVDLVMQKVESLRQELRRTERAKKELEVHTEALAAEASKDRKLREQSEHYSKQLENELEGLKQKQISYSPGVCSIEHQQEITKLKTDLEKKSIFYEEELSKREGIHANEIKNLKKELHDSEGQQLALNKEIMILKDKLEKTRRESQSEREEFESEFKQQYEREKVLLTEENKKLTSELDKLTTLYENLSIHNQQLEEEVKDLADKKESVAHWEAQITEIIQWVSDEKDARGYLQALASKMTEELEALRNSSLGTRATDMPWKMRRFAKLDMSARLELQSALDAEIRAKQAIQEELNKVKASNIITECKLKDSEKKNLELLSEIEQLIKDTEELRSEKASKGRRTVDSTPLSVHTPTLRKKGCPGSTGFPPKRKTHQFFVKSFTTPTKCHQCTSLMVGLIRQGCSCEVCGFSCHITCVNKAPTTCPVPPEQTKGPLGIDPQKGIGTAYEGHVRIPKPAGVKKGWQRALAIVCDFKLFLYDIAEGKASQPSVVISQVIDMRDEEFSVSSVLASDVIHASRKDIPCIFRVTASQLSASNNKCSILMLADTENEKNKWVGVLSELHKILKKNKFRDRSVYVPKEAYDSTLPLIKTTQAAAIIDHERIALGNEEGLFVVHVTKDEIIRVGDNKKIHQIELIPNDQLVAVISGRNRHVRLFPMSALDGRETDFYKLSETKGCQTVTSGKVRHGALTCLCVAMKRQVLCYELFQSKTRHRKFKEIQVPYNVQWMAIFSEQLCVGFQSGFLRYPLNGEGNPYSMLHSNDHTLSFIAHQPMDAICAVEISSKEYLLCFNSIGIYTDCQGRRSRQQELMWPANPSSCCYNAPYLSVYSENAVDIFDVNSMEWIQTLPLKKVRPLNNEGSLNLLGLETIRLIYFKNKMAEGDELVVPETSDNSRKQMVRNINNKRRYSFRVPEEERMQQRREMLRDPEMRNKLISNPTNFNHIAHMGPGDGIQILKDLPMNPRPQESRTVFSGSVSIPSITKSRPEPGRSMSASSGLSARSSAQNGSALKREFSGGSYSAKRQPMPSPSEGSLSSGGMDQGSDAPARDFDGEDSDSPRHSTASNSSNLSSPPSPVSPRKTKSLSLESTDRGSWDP

residual activity [1] [%] | residual activity [2] [%] | residual activity [3] [%] | residual activity [4] [%] | residual activity [5] [%] | residual activity [6] [%] | residual activity [7] [%] | residual activity [8] [%] | residual activity [9] [%] | residual activity [10] [%] | residual activity [11] [%] | residual activity [12] [%] | residual activity [13] [%] | residual activity [14] [%] | residual activity [15] [%] | residual activity [16] [%] | residual activity [17] [%] | residual activity [18] [%] | Compound
94 | 104 | 128 | 85 | 88 | 97 | 13 | 74 | 87 | 93 | 66 | 83 | 144 | 200 | 21 | 165 | 109 | 87 | COc1cc2c(Oc3ccc(-c4nc5ccccc5s4)cc3)ncnc2cc1OCCCN1CCCC1
102 | 112 | 98 | 88 | 101 | 82 | 28 | 59 | 83 | 106 | 67 | 96 | 161 | 163 | 13 | 231 | 92 | 120 | COc1cc2c(Oc3ccc(-c4nc5ccccc5s4)cc3)ncnc2cc1OCCCN1CCN(C)CC1
92 | 86 | 99 | 88 | 111 | 76 | 44 | 53 | 88 | 107 | 61 | 79 | 163 | 89 | 5 | 229 | 107 | 83 | COc1cc2c(Oc3ccc(-c4nc5ccccc5s4)cc3F)ncnc2cc1OCCCN1CCN(C)CC1
